Consider three molecules from the NIST ThermoML archive (doi:10.1016/j.jct.2008.09.020).

“And” between values parts separate entries of the source, which are not always exact repeats. Equal values may be shown once. Numbers after ± are expanded uncertainties.

The conditions of the series: 313.15 K; Liquid; Ebulliometric method (Recirculating still).

What is called vapor or sublimation pressure is the pressure of vapour in equilibrium with the condensed phase. For the molecule `Cc1ccccc1` [toluene], the “vapor or sublimation pressure” value was 7.869 ± 0.07 kPa and 7.872 ± 0.07 kPa. For `CCOC(C)(C)C` [2-ethoxy-2-methylpropane], the “vapor or sublimation pressure” value is 31.63 ± 0.17 kPa and 31.64 ± 0.17 kPa.

Regarding `C=CCCCC` [hex-1-ene], the “vapor or sublimation pressure” value is 44.96 ± 0.28 kPa and 44.94 ± 0.28 kPa.
